Data from US9765056B2, “Indole and pyrrole compounds, a process for their preparation and pharmaceutical compositions containing them” (LES LABORATOIRES SERVIER, priority 2013, dated 2017).
Where a name gives a salt, the structure may show the parent alone.

Key:
[1] = system: RS4;11 leukaemia tumour line; assay: In vitro cytotoxicity, Microculture Tetrazolium Assay (MTT); format: cell-based; conditions: Homo sapiens; RS4;11 cells, 48 hours exposure
Method: The cytotoxicity studies were carried out on the RS4;11 leukaemia tumour line.
The cells are distributed onto microplates and exposed to the test compounds for 48 hours. The cell viability is then quantified by a colorimetric assay, the Microculture Tetrazolium Assay (Cancer Res., 1987, 47, 939-942).

[2] = target: Bcl-2 protein (histag-Bcl-2, UniProtKB P10415) (Homo sapiens (Human), UniProt P10415); assay: Inhibition of Bcl-2 by the fluorescence polarisation technique; format: binding; conditions: fluorescence polarisation test; method A, or method B where underlined (underlining not visible); read-out: IC50 (nM) Bcl-2 FP
Excerpt: Inhibition of Bcl-2 by the fluorescence polarisation technique

Sequence of Bcl-2 protein (P10415 whole entry): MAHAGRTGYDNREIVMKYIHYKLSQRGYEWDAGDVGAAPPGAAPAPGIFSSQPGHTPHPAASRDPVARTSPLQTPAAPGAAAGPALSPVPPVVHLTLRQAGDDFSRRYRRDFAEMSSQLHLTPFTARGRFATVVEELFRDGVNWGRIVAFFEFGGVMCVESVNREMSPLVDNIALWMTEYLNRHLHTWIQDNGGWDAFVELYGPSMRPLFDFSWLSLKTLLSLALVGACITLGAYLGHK

Row | SMILES | IC50 [1] [nM] | IC50 [2] [nM]
1 | Cc1cc(C(=O)N(c2ccc(O)cc2)c2ccc(Cl)cc2)cn1-c1cc2c(cc1C(=O)N1Cc3ccccc3C[C@H]1CN1CCN(C)CC1)OCO2 [Example 85, N-(4-Chlorophenyl)-N-(4-hydroxyphenyl)-5-methyl-1-(6-{[(3S)-3-[(4-methylpiperazin-1-yl)methyl]-3,4-dihydroisoquinolin-2(1H)-yl]carbonyl}-1,3-benzodioxol-5-yl)-1H-pyrrole-3-carboxamide] | 129 | 3.7
2 | Cc1ccc(N(C(=O)c2cc(C)n(-c3cc(Cl)ccc3C(=O)N3Cc4ccccc4C[C@H]3CN3CCN(C)CC3)c2)c2ccc(O)cc2)cc1 [Example 91, 1-(5-Chloro-2-{[(3S)-3-[(4-methylpiperazin-1-yl)methyl]-3,4-dihydroisoquinolin-2(1H)-yl]carbonyl}phenyl)-N-(4-hydroxyphenyl)-5-methyl-N-(4-methylphenyl)-1H-pyrrole-3-carboxamide] | 172 | 5.3
3 | NC[C@@H]1Cc2ccccc2CN1C(=O)c1cc(N)ccc1-n1nc(C(=O)N(c2ccccc2)c2ccccc2)c2ccccc21 [Example 138, 1-{4-Amino-2-[(3S)-3-(aminomethyl)-1,2,3,4-tetrahydroisoquinoline-2-carbonyl]phenyl}-N,N-diphenyl-1H-indazole-3-carboxamide] | 2020 | 52.2
4 | CCn1ccc2cc(N(C(=O)c3cn(-c4cc5c(cc4C(=O)N4Cc6ccccc6C[C@H]4CN4CCN(C)CC4)OCO5)c4ccccc34)c3ccc(O)cc3)ccc21 [Example 99, N-(1-Ethyl-1H-indol-5-yl)-N-(4-hydroxyphenyl)-1-(6-{[(3S)-3-[(4-methylpiperazin-1-yl)methyl]-3,4-dihydroisoquinolin-2(1H)-yl]carbonyl}-1,3-benzodioxol-5-yl)-1H-indole-3-carboxamide] | 41.7 | 4.8
5 | CN1CCN(C[C@@H]2Cc3ccccc3CN2C(=O)c2cc3c(cc2-n2cc(C(=O)N(c4ccc(O)cc4)c4ccc5[nH]ccc5c4)c4ccccc42)OCO3)CC1 [Example 37, N-(4-Hydroxyphenyl)-N-(1H-indol-5-yl)-1-(6-{[(3S)-3-[(4-methylpiperazin-1-yl)methyl]-3,4-dihydroisoquinolin-2(1H)-yl]carbonyl}-1,3-benzodioxol-5-yl)-1H-indole-3-carboxamide] | 47.1 | 3.8
6 | COc1cc(C(=O)N2Cc3ccccc3C[C@H]2CN2CCN(C)CC2)c(-n2cc(C(=O)N(c3ccccc3)c3ccc(O)cc3)c3ccccc32)cc1Cl [Example 167, 1-{5-Chloro-4-methoxy-2-[(3S)-3-[(4-methylpiperazin-1-yl)methyl]-1,2,3,4-tetrahydroisoquinoline-2-carbonyl]phenyl}-N-(4-hydroxyphenyl)-N-phenyl-1H-indole-3-carboxamide] | 984 | 37.4
7 | O=C(c1cn(-c2ccccc2C(=O)N2Cc3ccccc3C[C@H]2CN2CCCCC2)c2ccccc12)N(c1ccccc1)c1ccc(O)cc1 [Example 173, N-(4-Hydroxyphenyl)-N-phenyl-1-{2-[(3S)-3-(piperidin-1-ylmethyl)-1,2,3,4-tetrahydroisoquinoline-2-carbonyl]phenyl}-1H-indole-3-carboxamide] | 2040 | 168
8 | O=C(c1cn(-c2cc3c(cc2C(=O)N2Cc4ccccc4C[C@H]2CN2CCOCC2)OCO3)c2c1CCCC2)N(c1ccccc1)c1ccc(O)cc1 [Example 113, N-(4-Hydroxyphenyl)-1-(6-{[(3S)-3-(morpholin-4-ylmethyl)-3,4-dihydroisoquinolin-2(1H)-yl]carbonyl}-1,3-benzodioxol-5-yl)-N-phenyl-4,5,6,7-tetrahydro-1H-indole-3-carboxamide hydrochloride] | 203 | 19.2
9 | Cc1cc(C(=O)N(c2ccc(O)cc2)c2ccc3c(c2)CCN3)cn1-c1cc2c(cc1C(=O)N1Cc3ccccc3C[C@H]1CN1CCOCC1)CCC2 [Example 110, N-(2,3-Dihydro-1H-indol-5-yl)-N-(4-hydroxyphenyl)-5-methyl-1-(6-{[(3S)-3-(morpholin-4-ylmethyl)-3,4-dihydroisoquinolin-2(1H)-yl]carbonyl}-2,3-dihydro-1H-inden-5-yl)-1H-pyrrole-3-carboxamide hydrochloride] | 291 | 8.1
10 | CN1CCN(C[C@@H]2Cc3ccccc3CN2C(=O)c2cc3c(cc2-n2cc(C(=O)N(c4ccc(O)cc4)c4ccc(F)cc4)c4ccccc42)OCO3)CC1 [Example 35, N-(4-Fluorophenyl)-N-(4-hydroxyphenyl)-1-(6-{[(3S)-3-[(4-methylpiperazin-1-yl)methyl]-3,4-dihydroisoquinolin-2(1H)-yl]carbonyl}-1,3-benzodioxol-5-yl)-1H-indole-3-carboxamide] | 68.9 | 3.5
11 | CN1CCN(C[C@@H]2Cc3ccccc3CN2C(=O)c2ccc(Br)cc2-n2cc(C(=O)N(c3ccc(O)cc3)c3ccc(F)cc3)c3ccccc32)CC1 [Example 71, 1-(5-Bromo-2-{[(3S)-3-[(4-methylpiperazin-1-yl)methyl]-3,4-dihydroisoquinolin-2(1H)-yl]carbonyl}phenyl)-N-(4-fluorophenyl)-N-(4-hydroxyphenyl)-1H-indole-3-carboxamide] | 196 | 8.3
12 | CN1CCN(C[C@@H]2Cc3ccccc3CN2C(=O)c2cc3c(cc2-n2cc(C(=O)N(c4ccccc4)c4ccc(O)c(F)c4)c4ccccc42)OCO3)CC1 [Example 34, N-(3-Fluoro-4-hydroxyphenyl)-1-(6-{[(3S)-3-[(4-methylpiperazin-1-yl)methyl]-3,4-dihydroisoquinolin-2(1H)-yl]carbonyl}-1,3-benzodioxol-5-yl)-N-phenyl-1H-indole-3-carboxamide] | 133 | 7.7
13 | CN1CCN(C[C@@H]2Cc3ccccc3CN2C(=O)c2ccc(Br)cc2-n2cc(C(=O)N(c3ccc(O)cc3)c3ccc4c(ccn4C)c3)c3ccccc32)CC1 [Example 69, 1-(5-Bromo-2-{[(3S)-3-[(4-methylpiperazin-1-yl)methyl]-3,4-dihydroisoquinolin-2(1H)-yl]carbonyl}phenyl)-N-(4-hydroxyphenyl)-N-(1-methyl-1H-indol-5-yl)-1H-indole-3-carboxamide hydrochloride] | 67.6 | 9
14 | CN1CCN(C[C@@H]2Cc3ccccc3CN2C(=O)c2cc3c(cc2-n2cc(C(=O)N(c4ccc(O)cc4)c4ccc(F)c(Cl)c4)c4ccccc42)OCO3)CC1 [Example 58, N-(3-Chloro-4-fluorophenyl)-N-(4-hydroxyphenyl)-1-(6-{[(3S)-3-[(4-methylpiperazin-1-yl)methyl]-3,4-dihydroisoquinolin-2(1H)-yl]carbonyl}-1,3-benzodioxol-5-yl)-1H-indole-3-carboxamide hydrochloride] | 190 | 20.5
15 | Cc1cc(C(=O)N(c2ccc(O)cc2)c2ccc(Cl)cc2)cn1-c1cc(Cl)ccc1C(=O)N1Cc2ccccc2C[C@H]1CN1CCN(C)CC1 [Example 65, 1-(5-Chloro-2-{[(3S)-3-[(4-methylpiperazin-1-yl)methyl]-3,4-dihydroisoquinolin-2(1H)-yl]carbonyl}phenyl)-N-(4-chlorophenyl)-N-(4-hydroxyphenyl)-5-methyl-1H-pyrrole-3-carboxamide] | 130 | 5.1
16 | Cc1cc(C(=O)N(c2ccccc2)c2ccc(O)cc2)cn1-c1cc(F)c(F)cc1C(=O)N1Cc2ccccc2C[C@H]1CN1CCN(C)CC1 [Example 20, 1-(4,5-Difluoro-2-{[(3S)-3-[(4-methylpiperazin-1-yl)methyl]-3,4-dihydroisoquinolin-2(1H)-yl]carbonyl}phenyl)-N-(4-hydroxyphenyl)-5-methyl-N-phenyl-1H-pyrrole-3-carboxamide] | 900 | 74.3
17 | Cc1cc(C(=O)N(c2ccccc2)c2ccc(O)cc2)cn1-c1cc(O)ccc1C(=O)N1Cc2ccccc2C[C@H]1CN1CCOCC1 [Example 15, 1-(5-Hydroxy-2-{[(3S)-3-(morpholin-4-ylmethyl)-3,4-dihydroisoquinolin-2(1H)-yl]carbonyl}phenyl)-N-(4-hydroxyphenyl)-5-methyl-N-phenyl-1H-pyrrole-3-carboxamide] | 759 | 22.1
18 | NC[C@@H]1Cc2ccccc2CN1C(=O)c1cc(NC(=O)COc2ccccc2)ccc1-n1nc(C(=O)N(c2ccccc2)c2ccccc2)c2ccccc21 [Example 144, 1-{2-[(3S)-3-(Aminomethyl)-1,2,3,4-tetrahydroisoquinoline-2-carbonyl]-4-(2-phenoxyacetamido)phenyl}-N,N-diphenyl-1H-indazole-3-carboxamide] | 1380 | 35
19 | CN1CCN(C[C@@H]2Cc3ccccc3CN2C(=O)c2cc3c(cc2-n2cc(C(=O)N(CCc4ccccc4)c4ccc(Cl)cc4)c4ccccc42)OCO3)CC1 [Example 36, N-(4-Chlorophenyl)-1-(6-{[(3S)-3-[(4-methylpiperazin-1-yl)methyl]-3,4-dihydroisoquinolin-2(1H)-yl]carbonyl}-1,3-benzodioxol-5-yl)-N-(2-phenylethyl)-1H-indole-3-carboxamide] | 2420 | 1110
20 | Cc1ccc(N(C(=O)c2cc(C)n(-c3cc4c(cc3C(=O)N3Cc5ccccc5C[C@H]3CN3CCOCC3)OCO4)c2)c2ccc(O)cc2)cc1 [Example 106, N-(4-Hydroxyphenyl)-5-methyl-N-(4-methylphenyl)-1-(6-{[(3S)-3-(morpholin-4-ylmethyl)-3,4-dihydroisoquinolin-2(1H)-yl]carbonyl}-1,3-benzodioxol-5-yl)-1H-pyrrole-3-carboxamide hydrochloride] | 521 | 19.6
21 | Cc1cc(C(=O)N(c2ccccc2)c2ccc(O)cc2)cn1-c1cc(Cl)ccc1C(=O)N1Cc2ccccc2C[C@H]1CN(C)C [Example 13, 1-(5-Chloro-2-{[(3S)-3-[(dimethylamino)methyl]-3,4-dihydroisoquinolin-2(1H)-yl]carbonyl}phenyl)-N-(4-hydroxyphenyl)-5-methyl-N-phenyl-1H-pyrrole-3-carboxamide] | 462 | 16.2
